In BindingDB's records for patent WO2022064009 (JANSSEN PHARMACEUTICA NV, 2022):

Target: CDK-activating kinase assembly factor MAT1/Cyclin-H/Cyclin-dependent kinase 7 (Homo sapiens, UniProt P50613)
Assay: n Vitro CDK7 (20 nM) Assay
Method: Compounds with potencies approaching the limit of detection of the assay (IC50 < 10 nM) were further assessed in a more sensitive fluorescence end-point assay. […] Absorbance at 340 nm was followed kinetically at an interval of 2 minutes for 8 hours.The assay was carried out with 100 μl reaction volume per well in a 384-well plate that was pre-spotted nanoliter volume of compounds by LabCyte Echo 555. Compound dilution plates were made by 2-fold (could vary upon necessity) dilution in DMSO for 11 concentrations plus a DMSO control of uninhibited reaction. 2x substrate and coupling reagent mixture was added to the assay plate followed by an addition of an equal volume of 40 nM CDK7/Cyclin H/MAT-1 complex. After mixing, assay plates were spun at 2000 rpm for 3 minutes and then transferred to the plate reader for data collection.

Chain of CDK-activating kinase assembly factor MAT1/Cyclin-H/Cyclin-dependent kinase 7 (P51946 whole entry): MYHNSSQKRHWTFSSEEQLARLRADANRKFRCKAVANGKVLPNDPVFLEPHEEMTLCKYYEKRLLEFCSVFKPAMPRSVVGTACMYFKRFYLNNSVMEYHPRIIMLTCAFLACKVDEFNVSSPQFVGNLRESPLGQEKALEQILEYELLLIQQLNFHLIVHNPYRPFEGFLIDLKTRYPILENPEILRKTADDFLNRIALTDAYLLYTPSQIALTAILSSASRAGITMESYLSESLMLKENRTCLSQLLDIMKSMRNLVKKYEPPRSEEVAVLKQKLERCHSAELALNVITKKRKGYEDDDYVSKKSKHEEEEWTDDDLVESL
Chain of CDK-activating kinase assembly factor MAT1/Cyclin-H/Cyclin-dependent kinase 7 (P50613 whole entry): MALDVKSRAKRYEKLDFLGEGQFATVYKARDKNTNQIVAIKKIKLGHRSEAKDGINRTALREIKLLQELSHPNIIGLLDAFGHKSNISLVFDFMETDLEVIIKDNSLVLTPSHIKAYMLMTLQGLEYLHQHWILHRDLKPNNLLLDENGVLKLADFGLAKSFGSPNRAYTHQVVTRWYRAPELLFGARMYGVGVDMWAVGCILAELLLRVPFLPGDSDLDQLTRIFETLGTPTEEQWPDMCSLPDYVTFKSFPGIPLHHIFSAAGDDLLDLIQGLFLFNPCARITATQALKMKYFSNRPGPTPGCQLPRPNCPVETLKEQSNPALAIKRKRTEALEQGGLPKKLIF
Chain of CDK-activating kinase assembly factor MAT1/Cyclin-H/Cyclin-dependent kinase 7 (P51948 whole entry, further chain): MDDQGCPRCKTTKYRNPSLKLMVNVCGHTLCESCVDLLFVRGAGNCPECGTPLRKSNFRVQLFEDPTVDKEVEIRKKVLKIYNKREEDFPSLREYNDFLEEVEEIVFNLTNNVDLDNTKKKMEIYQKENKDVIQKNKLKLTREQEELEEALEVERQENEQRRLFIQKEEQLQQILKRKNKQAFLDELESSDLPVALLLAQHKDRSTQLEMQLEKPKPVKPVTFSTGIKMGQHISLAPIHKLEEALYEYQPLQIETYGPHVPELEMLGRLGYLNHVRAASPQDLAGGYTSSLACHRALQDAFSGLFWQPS

IC50: 575 nM
Compound: C[C@@H]1Cc2cnc(NC3CCOCC3)nc2CN1C(=O)[C@H]1CCN(C2COC2)C[C@@H]1c1ccccc1 [WO2022064009, Compound 159]
